Publication PMC9403976, “Elucidating the path to Plasmodium prolyl-tRNA synthetase inhibitors that overcome halofuginone resistance” (Nature Communications, 2022)
Where “and” joins values, the source holds several entries; their conditions need not be identical. Identical values can stand only once. Like-named read-outs stand apart in the source and are kept apart here.

How the values were obtained:
P. falciparum Dd2-2D4 = assay: P. falciparum asexual blood stage (ABS) growth assay, SYBR Green, 72 h, wild-type parasites; type: cell-based, Plasmodium falciparum; conditions: Plasmodium falciparum, DD2; SI Fig 16b; values on -log scale; read-out: ABS - Dd2-2D4 (converted)
Procedure: Parasites were maintained under standard culture conditions as described previously[56],[57]. […] The P. falciparum Dd2 cell lines used in this study (Dd2-2D4, halofuginone-induced, and HFGR-I) have previously undergone whole genome sequencing in our labs.
This assay was performed as previously described[8]. In short, P. falciparum erythrocytic-stage parasites at 1% parasitemia and 1% hematocrit in RPMI + 0.5% Albumax were seeded at 40 μL/well in 384-well plates with test compounds in triplicate, dose-response format with 10 μM dihydroartemisinin as a kill-control and blank (no compound) wells as a growth-control. […] After 72 h, growth was quantified by measuring fluorescence (Molecular Devices SpectraMax iD5) following SYBR Green 1 staining. Data were analyzed in Excel and plotted in PRISM (V. 8.4.3–9.1.0, GraphPad).

PfcProRS = target: T1, PfcProRS (Plasmodium falciparum, UniProt Q8I5R7); type: binding; conditions: for dose-response signal (normalized), SI Fig 8: single replicates
T1 construct: made in house; host or cells: E. coli SoluBL-21
T1 sequence (Q8I5R7 249-746): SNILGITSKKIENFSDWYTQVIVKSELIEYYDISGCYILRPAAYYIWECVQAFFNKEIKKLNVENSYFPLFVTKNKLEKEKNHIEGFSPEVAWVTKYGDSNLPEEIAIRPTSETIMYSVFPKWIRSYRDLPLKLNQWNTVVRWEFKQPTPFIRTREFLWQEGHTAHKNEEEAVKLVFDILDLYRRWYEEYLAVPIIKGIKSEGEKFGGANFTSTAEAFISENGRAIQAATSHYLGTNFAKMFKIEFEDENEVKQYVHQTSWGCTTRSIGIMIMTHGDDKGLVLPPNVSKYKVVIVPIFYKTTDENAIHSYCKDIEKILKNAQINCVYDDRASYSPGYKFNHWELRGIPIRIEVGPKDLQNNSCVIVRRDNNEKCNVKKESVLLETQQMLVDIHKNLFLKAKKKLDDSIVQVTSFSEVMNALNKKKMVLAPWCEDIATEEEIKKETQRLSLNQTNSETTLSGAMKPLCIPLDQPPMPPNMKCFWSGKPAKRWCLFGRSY

HsProRS = HsProRS (Homo sapiens, UniProt P07814); assay: TR-FRET ligand displacement assay with tracer MAT379 (CoraFluor-1-Halo and anti-His6 antibody formats); type: binding; parameters: made in house; host or cells: E. coli SoluBL-21; conditions: for TR-FRET dose-response, normalized signal (SI Fig 11): individual replicates
HsProRS, sequence (P07814 996-1512): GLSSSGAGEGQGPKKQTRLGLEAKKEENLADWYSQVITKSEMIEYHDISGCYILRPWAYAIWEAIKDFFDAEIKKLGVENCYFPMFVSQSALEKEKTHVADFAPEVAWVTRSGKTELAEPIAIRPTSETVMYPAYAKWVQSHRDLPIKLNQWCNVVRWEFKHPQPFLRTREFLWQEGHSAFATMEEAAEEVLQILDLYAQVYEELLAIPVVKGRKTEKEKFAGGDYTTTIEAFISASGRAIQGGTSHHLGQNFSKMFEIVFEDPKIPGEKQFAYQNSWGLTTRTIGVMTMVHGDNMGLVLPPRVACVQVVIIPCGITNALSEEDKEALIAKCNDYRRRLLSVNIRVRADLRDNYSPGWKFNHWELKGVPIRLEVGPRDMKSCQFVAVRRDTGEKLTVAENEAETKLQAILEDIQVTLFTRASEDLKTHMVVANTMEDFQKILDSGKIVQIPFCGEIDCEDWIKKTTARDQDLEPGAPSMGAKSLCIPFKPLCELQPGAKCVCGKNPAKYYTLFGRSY

NC1(C(=O)Nc2nccnc2C(=O)NC2Cc3ccccc3C2)CCCCC1 [compound 17]
EC50 (P. falciparum Dd2-2D4): 5.79 µM | dose-response signal (normalized), SI Fig 8 (PfcProRS; Log[inhibitor] (M) -5.000): -2.16E-02 and 3.35E-02 and 3.85E-02 | dose-response signal (normalized), SI Fig 8 (PfcProRS; Log[inhibitor] (M) -5.301): 9.18E-02 and 6.95E-02 and 1.07E-01 | dose-response signal (normalized), SI Fig 8 (PfcProRS; Log[inhibitor] (M) -5.601): 1.19E-01 and 1.25E-01 and 1.05E-01 | dose-response signal (normalized), SI Fig 8 (PfcProRS; Log[inhibitor] (M) -5.904): 2.12E-01 and 2.21E-01 and 2.19E-01 | dose-response signal (normalized), SI Fig 8 (PfcProRS; Log[inhibitor] (M) -6.208): 4.81E-01 and 4.00E-01 and 5.13E-01 | dose-response signal (normalized), SI Fig 8 (PfcProRS; Log[inhibitor] (M) -6.509): 7.01E-01 and 7.64E-01 and 7.83E-01 | dose-response signal (normalized), SI Fig 8 (PfcProRS; Log[inhibitor] (M) -6.796): 9.36E-01 and 8.53E-01 and 9.43E-01 | dose-response signal (normalized), SI Fig 8 (PfcProRS; Log[inhibitor] (M) -7.108): 1.01E+00 and 9.81E-01 and 1.06E+00 | dose-response signal (normalized), SI Fig 8 (PfcProRS; Log[inhibitor] (M) -7.409): 1.04E+00 and 9.85E-01 and 1.08E+00 | dose-response signal (normalized), SI Fig 8 (PfcProRS; Log[inhibitor] (M) -7.710): 9.36E-01 and 1.05E+00 and 9.73E-01 | dose-response signal (normalized), SI Fig 8 (PfcProRS; Log[inhibitor] (M) -8.000): 9.16E-01 and 9.94E-01 and 1.09E+00 | dose-response signal (normalized), SI Fig 8 (PfcProRS; Log[inhibitor] (M) -8.301): 1.01E+00 and 9.14E-01 and 9.61E-01 | dose-response signal (normalized), SI Fig 8 (PfcProRS; Log[inhibitor] (M) -8.602): 9.67E-01 and 1.05E+00 and 9.29E-01 | dose-response signal (normalized), SI Fig 8 (PfcProRS; Log[inhibitor] (M) -9.000): 9.54E-01 and 9.96E-01 and 9.84E-01 | dose-response signal (normalized), SI Fig 8 (PfcProRS; Log[inhibitor] (M) -9.301): 9.59E-01 and 9.29E-01 and 9.60E-01 | PfcProRS -- best Kd (PfcProRS; SI Fig 16a, values on -log scale): 6.883 | Kd (HsProRS; HsProRS (KD [nM]) mean, no added proline/ATP (-)): 4430 nM | Kd (HsProRS; HsProRS - best Kd, SI Fig 16a, values on -log scale): 25.5 nM | normalized TR-FRET ligand displacement signal, dose-response replicates (SI Fig 6) (HsProRS; Log[inhibitor] (M) -5.000): 2.29E-01 and 2.88E-01 and 2.34E-01 | TR-FRET dose-response, normalized signal (SI Fig 11) (HsProRS; Log[inhibitor] (M) -5.000): 3.10E-01 and 3.50E-01 and 2.83E-01 | normalized TR-FRET ligand displacement signal, dose-response replicates (SI Fig 6) (HsProRS; Log[inhibitor] (M) -5.301): 4.79E-01 and 4.33E-01 and 5.59E-01 | TR-FRET dose-response, normalized signal (SI Fig 11) (HsProRS; Log[inhibitor] (M) -5.301): 5.37E-01 (2×) and 4.61E-01 | normalized TR-FRET ligand displacement signal, dose-response replicates (SI Fig 6) (HsProRS; Log[inhibitor] (M) -5.601): 7.03E-01 and 7.28E-01 and 7.31E-01 | TR-FRET dose-response, normalized signal (SI Fig 11) (HsProRS; Log[inhibitor] (M) -5.601): 6.81E-01 and 6.32E-01 and 7.28E-01 | normalized TR-FRET ligand displacement signal, dose-response replicates (SI Fig 6) (HsProRS; Log[inhibitor] (M) -5.904): 9.55E-01 and 9.39E-01 and 8.52E-01 | TR-FRET dose-response, normalized signal (SI Fig 11) (HsProRS; Log[inhibitor] (M) -5.904): 7.93E-01 and 8.32E-01 and 8.75E-01 | normalized TR-FRET ligand displacement signal, dose-response replicates (SI Fig 6) (HsProRS; Log[inhibitor] (M) -6.208): 9.44E-01 and 9.23E-01 and 8.86E-01 | TR-FRET dose-response, normalized signal (SI Fig 11) (HsProRS; Log[inhibitor] (M) -6.208): 9.35E-01 and 8.64E-01 and 9.27E-01 | normalized TR-FRET ligand displacement signal, dose-response replicates (SI Fig 6) (HsProRS; Log[inhibitor] (M) -6.509): 9.47E-01 and 9.84E-01 and 9.68E-01 | TR-FRET dose-response, normalized signal (SI Fig 11) (HsProRS; Log[inhibitor] (M) -6.509): 8.93E-01 and 9.27E-01 and 9.36E-01 | normalized TR-FRET ligand displacement signal, dose-response replicates (SI Fig 6) (HsProRS; Log[inhibitor] (M) -6.796): 9.18E-01 and 9.88E-01 and 9.43E-01 | TR-FRET dose-response, normalized signal (SI Fig 11) (HsProRS; Log[inhibitor] (M) -6.796): 9.97E-01 and 9.65E-01 and 9.84E-01 | normalized TR-FRET ligand displacement signal, dose-response replicates (SI Fig 6) (HsProRS; Log[inhibitor] (M) -7.108): 9.90E-01 and 9.75E-01 and 9.07E-01 | TR-FRET dose-response, normalized signal (SI Fig 11) (HsProRS; Log[inhibitor] (M) -7.108): 9.67E-01 and 9.70E-01 and 9.86E-01 | normalized TR-FRET ligand displacement signal, dose-response replicates (SI Fig 6) (HsProRS; Log[inhibitor] (M) -7.409): 1.03E+00 and 1.00E+00 and 1.02E+00 | TR-FRET dose-response, normalized signal (SI Fig 11) (HsProRS; Log[inhibitor] (M) -7.409): 9.20E-01 and 9.49E-01 and 9.94E-01 | normalized TR-FRET ligand displacement signal, dose-response replicates (SI Fig 6) (HsProRS; Log[inhibitor] (M) -7.710): 1.02E+00 and 9.03E-01 and 1.03E+00 | TR-FRET dose-response, normalized signal (SI Fig 11) (HsProRS; Log[inhibitor] (M) -7.710): 9.99E-01 and 9.64E-01 and 1.05E+00 | normalized TR-FRET ligand displacement signal, dose-response replicates (SI Fig 6) (HsProRS; Log[inhibitor] (M) -8.000): 1.01E+00 and 9.27E-01 and 9.75E-01 | TR-FRET dose-response, normalized signal (SI Fig 11) (HsProRS; Log[inhibitor] (M) -8.000): 1.01E+00 and 9.57E-01 and 9.53E-01 | normalized TR-FRET ligand displacement signal, dose-response replicates (SI Fig 6) (HsProRS; Log[inhibitor] (M) -8.301): 1.01E+00 and 1.00E+00 and 1.05E+00 | TR-FRET dose-response, normalized signal (SI Fig 11) (HsProRS; Log[inhibitor] (M) -8.301): 9.70E-01 and 9.81E-01 and 1.01E+00 | normalized TR-FRET ligand displacement signal, dose-response replicates (SI Fig 6) (HsProRS; Log[inhibitor] (M) -8.602): 9.94E-01 and 1.05E+00 and 1.03E+00 | TR-FRET dose-response, normalized signal (SI Fig 11) (HsProRS; Log[inhibitor] (M) -8.602): 9.48E-01 and 9.63E-01 and 9.29E-01 | normalized TR-FRET ligand displacement signal, dose-response replicates (SI Fig 6) (HsProRS; Log[inhibitor] (M) -9.000): 9.41E-01 and 1.01E+00 and 9.67E-01 | TR-FRET dose-response, normalized signal (SI Fig 11) (HsProRS; Log[inhibitor] (M) -9.000): 9.46E-01 and 9.80E-01 and 9.64E-01 | normalized TR-FRET ligand displacement signal, dose-response replicates (SI Fig 6) (HsProRS; Log[inhibitor] (M) -9.301): 1.02E+00 and 9.62E-01 and 8.95E-01 | TR-FRET dose-response, normalized signal (SI Fig 11) (HsProRS; Log[inhibitor] (M) -9.301): 9.77E-01 (2×) and 9.15E-01
